Measurements from patent US12545686B2, “Polymorphic forms of (s)-n-(3-bromo-2-fluorophenyl)-7-((4-methylpiperazin-1-yl)methyl)-7,8-dihydro-[1,4]dioxino[2,3-g]quinazolin-4-amine as EGFR inhibitors” (ERASCA, INC., priority 2021, dated 2026).
Converted amounts (≈) assume the structure as drawn.

Legend:
Assay type in all cases: physicochemical
[1] = Dynamic vapor sorption (DVS), with PXRD and TG-FTIR of the post-DVS sample; conditions: for Solid form of the sample recovered post-DVS (PXRD): PXRD after DVS; for Water content of the post-DVS sample by TG-FTIR: sample recovered at end of DVS test; for Total water content change during the DVS cycles: wet sample used
Experimental: Dynamic vapor sorption: DVS measurements were performed with an SPS11-100n “Sorptions Prifsystem” from ProUmid (formerly “Projekt Messtechnik”), August-Nagel-Str. 23, 89079 Ulm (Germany). About 5-20 mg of sample was put into an aluminum sample pan. Humidity change rates of 5% per hour were used. The applied measurement program is visualized in the figure (blue trace). The presentations showing the effective water content are corrected.
The sample was placed on an aluminum or platinum holder on top of a microbalance and allowed to equilibrate at 50% RH before starting the pre-defined humidity programs. The measurement program is visualized in the figures of the report.
Classification of Hygroscopicity: The hygroscopicity was classified based on the mass gain at 85% RH relative to the initial mass as follows: deliquescent (sufficient water adsorbed to form a liquid), very hygroscopic (mass increase of ≥15%), hygroscopic (mass increase <15% but ≥2%), slightly hygroscopic (mass increase <2% but ≥0.2%), or non-hygroscopic (mass increase <0.2%).

[2] = Physical form stability on drying (PXRD)
Experimental: PowderX-ray diffraction: Powder X-ray diffraction was carried out with a Stoe Stadi P diffractometer equipped with a Mythen1K detector operating with Cu—Kα1 radiation. The measurements with this instrument were performed in transmission at a tube voltage of 40 kV and 40 mA tube power. A curved Ge monochromator allows testing with Cu—Kα1 radiation. The following parameters were set: 0.02° 20 step size, 12 s step time, 1.5-50.5° 20 scanning range, and 1° 20 detector step (detector mode in step scan). For a typical sample preparation about 10 mg of sample was placed between two acetate foils and mounted into a Stoe transmission sample holder. The sample was rotated during the measurement. All sample preparation and measurement was done in an ambient air atmosphere.
The first crystalline form of Compound (I) was designated as Form A and was obtained from a suspension equilibration experiment of the amorphous form in an isopropanol—water mixture. Form A was characterized by PXRD, TG-FTIR, H-NMR and DVS.
The PXRD pattern of Form A is depicted in FIG. 1. It should be noted that this sample was examined by PXRD before drying and that the undried sample is highly crystalline in nature. […] A TG-FTIR of the crystal Form A sample without much drying indicated a large mass loss of 36.6% that is attributable to water and isopropanol. Given the large mass loss it was concluded that drying was insufficient, and therefore the sample was further dried under vacuum at ambient temperature for about 23 hours and a new TG-FTIR was recorded.
As with Form A, Form B was examined by PXRD before drying was indicated to be highly crystalline in nature. […] A TG-FTIR was carried out for Form B without further drying and the thermogram indicated a large mass loss of 36.5% that is attributable to water; however no alcohol was detected. Given the large mass loss it was concluded that drying was insufficient, and the sample was subjected to further vacuum drying at ambient temperature for ten minutes and a new TG-FTIR was recorded. The new TG-FTIR thermogram indicated a water content of about 4.6%.

[3] = Approximate solubility by incremental addition of solvent; conditions: for solubility: thermodynamic from solid
Experimental: Solubility: Approximate solubilities were determined by incremental addition of solvent to about 10 mg the compound. If the substance was not dissolved by addition of a total of at least 10 ml solvent, the solubility is indicated as <1 mg/ml. Due to the experimental error inherent in this method, the solubility values are intended to be regarded as rough estimates and are to be used solely for the design of crystallization experiments.
Approximate solubilities were determined for amorphous Compound (I) at room temperature. These values were obtained by addition of small aliquots of solvent to small amounts of solid to achieve dissolution by stirring or agitation for a short period of time. […] Ratios for solvent mixtures correspond to volume ratios.
Initially the tests were carried out with the amorphous form Compound (I) and later on, after stable crystalline Form D (Example 7 below) was discovered, some of the tests were repeated with the crystalline form. […] Antisolvents are water, heptane, and TBME. […] Based on available data and further experiments diisopropylether, cyclohexane and methylcyclohexane can also be used as antisolvents.

Aqueous solubility = conditions: water, thermodynamic from solid; for solubility at 24 h: equilibration time 24 hours
[4] = Solubility tests in potential process solvent mixtures; conditions: thermodynamic from solid
[5] = pH dependent solubility tests in 0.1 M HCl, citrate buffer and USP phosphate buffers; conditions: thermodynamic from solid
Experimental: pH dependent solubility tests were conducted in 0.1 M HCl, in citrate buffer, and in USP phosphate buffers with nominal pH values of 6.8 and 7.4. Solubility tests at pH values below 5 failed because all compounds dissolved during the equilibration phase.

[6] = Thermogravimetry coupled with FT-IR (TG-FTIR), decomposition
Experimental: TG-FTIR: Thermogravimetric measurements were carried out with a Netzsch Thermo-Microbalance TG 209 coupled to a Bruker FTIR Spectrometer Vector 22 (sample pans with a pinhole, N2 atmosphere, heating rate 10 K/min).

## CN1CCN(C[C@H]2COc3cc4ncnc(Nc5cccc(Br)c5F)c4cc3O2)CC1 [Form C, (S)—N-(3-bromo-2-fluorophenyl)-7-((4-methylpiperazin-1-yl)methyl)-7,8-dihydro-[1,4]dioxino[2,3-g]quinazolin-4-amine]
[1]
  Solid form of the sample recovered post-DVS (PXRD): crystallinity was lost almost completely
  Water uptake above 50% r.h. in DVS: just small amounts of water
  Water content at the end of the DVS test: about 5.9%
  Water content of the post-DVS sample by TG-FTIR: about 5.9%
  Total water content change during the DVS cycles: about 14%
[2]
  Physical form stability: poor physical form stability

## CN1CCN(C[C@H]2COc3cc4ncnc(Nc5cccc(Br)c5F)c4cc3O2)CC1 [Form B, (S)—N-(3-bromo-2-fluorophenyl)-7-((4-methylpiperazin-1-yl)methyl)-7,8-dihydro-[1,4]dioxino[2,3-g]quinazolin-4-amine]
[1]
  Solid form of the sample recovered post-DVS (PXRD): crystallinity was lost
  Water uptake above 50% r.h. in DVS: just small amounts of water
  Water content of the post-DVS sample by TG-FTIR: about 6.4%
  Total water content change during the DVS cycles: about 13%
[2]
  Physical form stability: poor physical form stability
[2]; further drying beyond ten minutes vacuum
  Solid form after further drying: completely amorphous material
[2]; vacuum drying at ambient temperature for ten minutes
  PXRD of the dried sample: dramatic loss of crystallinity

## CN1CCN(C[C@H]2COc3cc4ncnc(Nc5cccc(Br)c5F)c4cc3O2)CC1 [Form D, (S)—N-(3-bromo-2-fluorophenyl)-7-((4-methylpiperazin-1-yl)methyl)-7,8-dihydro-[1,4]dioxino[2,3-g]quinazolin-4-amine]
[1]; at 95% relative humidity
  Water uptake in DVS: up to 0.8%
[1]; humidity scanned back to 0% r.h.
  Water release in DVS: lost all its water
[3]; 1-methoxy-2-propanol, organic solvent or mixture, Propanol, 1-methoxy-2-, room temperature
  solubility: > 200000 µg/mL
[3]; 2-propanol/heptane (1/1, v/v), organic solvent or mixture, Propanol, 2-/heptane 1/1, room temperature
  solubility: > 20000 µg/mL
[3]; acetone/heptane (1/3, v/v), organic solvent or mixture, Acetone/heptane 1/3, room temperature
  solubility: ~7000 µg/mL (≈ 14.3 mM)
[3]; ethanol/n-heptane (1/3, v/v), organic solvent or mixture, Ethanol/n-heptane (1/3), room temperature
  solubility: > 107000 µg/mL
[3]; ethyl acetate/n-heptane (1/3, v/v), organic solvent or mixture, Ethyl acetate/n-heptane (1/3), room temperature
  solubility: ~3000 µg/mL (≈ 6.14 mM)
[3]; in acetonitrile and ethyl acetate
  Solubility compared with the amorphous form (in words): substantially lower
[3]; isobutyl alcohol, organic solvent or mixture, Isobutylalcohol, room temperature
  solubility: > 136000 µg/mL
[3]; isopropyl acetate, organic solvent or mixture, room temperature
  solubility: 90000 to 180000 µg/mL (≈ 184 to 369 mM)
[3]; water, room temperature
  solubility: < 1000 µg/mL
Aqueous solubility; pH 8.49
  solubility at 24 h: 66 µg/mL (≈ 0.135 mM)
[4]; 25 °C, aqueous with cosolvent or surfactant or cyclodextrin, Isopropanol - water 1:1
  solubility: 20300 µg/mL (≈ 41.6 mM)
[4]; 25 °C, aqueous with cosolvent or surfactant or cyclodextrin, Isopropanol - water 1:3
  solubility: 1200 µg/mL (≈ 2.46 mM)
[4]; 25 °C, organic solvent or mixture, Ethyl acetate - heptane 1:1
  solubility: 23100 µg/mL (≈ 47.3 mM)
[4]; ethyl acetate - heptane 1:3, 25 °C, organic solvent or mixture
  solubility: 6300 µg/mL (≈ 12.9 mM)
[5]; USP phosphate buffer (nominal pH 6.8), aqueous buffer, effective pH 6.97
  solubility: 210 µg/mL (≈ 0.43 mM)
[5]; USP phosphate buffer (nominal pH 7.4), aqueous buffer, effective pH 7.47
  solubility: 84 µg/mL (≈ 0.172 mM)
[5]; citrate buffer, aqueous buffer, effective pH 5.28
  solubility: 13100 µg/mL (≈ 26.8 mM)
[5]; citrate buffer, aqueous buffer, effective pH 6.11
  solubility: 6600 µg/mL (≈ 13.5 mM)

## CN1CCN(C[C@H]2COc3cc4ncnc(Nc5cccc(Br)c5F)c4cc3O2)CC1 [Amorphous form, (S)—N-(3-bromo-2-fluorophenyl)-7-((4-methylpiperazin-1-yl)methyl)-7,8-dihydro-[1,4]dioxino[2,3-g]quinazolin-4-amine]
[1]; DVS, classes based on mass gain at 85% RH relative to initial mass
  Hygroscopicity classification: hygroscopic (hygroscopic (mass increase <15% but ≥2%))
[1]
  Solid form of the sample recovered post-DVS (PXRD): has not changed
  Water content at the end of the DVS test: about 6.4%
[1]; approximately same amount as during TG-FTIR
  Water lost during DVS: roughly 1.5%
[1]; high r.h. end
  Water content at the high r.h. end during the DVS cycles: about 15%
[3]; 2-propanol, organic solvent or mixture, Propanol, 2-, room temperature
  solubility: > 100000 µg/mL
[3]; Acetonitrile, room temperature
  Approximate solubility: S > 130 mg/ml
[3]; Ethanol/n-heptane (1/3), room temperature
  Approximate solubility: S > 130 mg/ml
[3]; Isopropyl acetate, room temperature
  Approximate solubility: S~100 mg/ml
[3]; MEK, organic solvent or mixture, room temperature
  solubility: > 100000 µg/mL
[3]; TBME, organic solvent or mixture, room temperature
  solubility: ~2000 µg/mL (≈ 4.1 mM)
[3]; THF, organic solvent or mixture, room temperature
  solubility: > 130000 µg/mL
[3]; THF/n-heptane (1/1, v/v), organic solvent or mixture, THF/n-heptane (1/1), room temperature
  solubility: ~2000 µg/mL (≈ 4.1 mM)
[3]; Water, room temperature
  Approximate solubility: S < 1 mg/ml
[3]; acetic acid, ketones, alcohols, esters, dichloromethane and mixtures thereof
  Solubility in the most common organic solvents (in words): highly soluble
[3]; acetic acid/water (1/3, v/v), aqueous with cosolvent or surfactant or cyclodextrin, Acetic acid/water (1/3), room temperature
  solubility: > 130000 µg/mL
[3]; acetone, organic solvent or mixture, room temperature
  solubility: > 100000 µg/mL
[3]; acetone/water (1/1, v/v), aqueous with cosolvent or surfactant or cyclodextrin, Acetone/water (1/1), room temperature
  solubility: > 120000 µg/mL
[3]; acetonitrile/water (1/1, v/v), aqueous with cosolvent or surfactant or cyclodextrin, Acetonitrile/water (1/1), room temperature
  solubility: > 110000 µg/mL
[3]; anisole, organic solvent or mixture, room temperature
  solubility: > 160000 µg/mL
[3]; dichloromethane, organic solvent or mixture, room temperature
  solubility: > 100000 µg/mL
[3]; ethanol, organic solvent or mixture, room temperature
  solubility: > 100000 µg/mL
[3]; ethanol/n-heptane (1/1, v/v), organic solvent or mixture, Ethanol/n-heptane (1/1), room temperature
  solubility: > 130000 µg/mL
[3]; ethanol/water (1/1, v/v), aqueous with cosolvent or surfactant or cyclodextrin, Ethanol/water (1/1), room temperature
  solubility: > 100000 µg/mL
[3]; ethyl acetate, organic solvent or mixture, room temperature
  solubility: > 100000 µg/mL
[3]; methanol, organic solvent or mixture, room temperature
  solubility: > 100000 µg/mL
[3]; methanol/TBME (1/2, v/v), organic solvent or mixture, Methanol/TBME (1/2), room temperature
  solubility: > 140000 µg/mL
[3]; n-heptane, organic solvent or mixture, room temperature
  solubility: < 1000 µg/mL
[6]
  Decomposition temperature: above 200 °C
Aqueous solubility; pH 9.27
  solubility at 24 h: 49 µg/mL (≈ 0.1 mM)
Aqueous solubility; equilibration time one hour, pH 9.16
  solubility at 1 h: 46 µg/mL (≈ 0.0942 mM)
[5]; USP phosphate buffer (nominal pH 6.8), aqueous buffer, effective pH 6.95
  solubility: 316 µg/mL (≈ 0.647 mM)
[5]; USP phosphate buffer (nominal pH 7.4), pH 7.5, aqueous buffer, effective pH 7.50
  solubility: 94 µg/mL (≈ 0.192 mM)
[5]; citrate buffer, aqueous buffer, effective pH 6.25
  solubility: 9630 µg/mL (≈ 19.7 mM)

## CN1CCN(C[C@H]2COc3cc4ncnc(Nc5cccc(Br)c5F)c4cc3O2)CC1 [Form A, (S)—N-(3-bromo-2-fluorophenyl)-7-((4-methylpiperazin-1-yl)methyl)-7,8-dihydro-[1,4]dioxino[2,3-g]quinazolin-4-amine]
[1]
  Solid form of the sample recovered post-DVS (PXRD): Form A was retained
  Water uptake above 50% r.h. in DVS: just small amounts of water
[1]; below 50% r.h.
  Water lost below 50% r.h. during the DVS cycles: about 8%
[1]; from 0% to 95% r.h., roughly three waters per Compound (I)
  Water content change over the whole range of relative humidity: ~10%
[2]
  Physical form stability: poor physical form stability
[2]; dried under vacuum at ambient temperature for about 23 hours
  PXRD of the dried sample: essentially amorphous material
[2]; drying of highly crystalline, solvent-rich samples
  Effect of drying on crystallinity: significant loss of crystallinity
